Literature values, collected in patent publication US20240238194A1, “ORODISPERSIBLE EFFERVESCENT TABLET COMPRISING BUDESONIDE FOR USE IN THE TREATMENT OF EOSINOPHILIC ESOPHAGITIS” (Dr. Falk Pharma GmbH, priority 2021, published 2024).

Details: in vivo

mucosal medication contact time, measured by scintigraphy: higher
Substance: budesonide [OVB]
